Activity calls are given as the source filed them. The calls are words filed in the database; no cut-off is given here.
Legend:
[1] = target: T1, Glutaminase kidney isoform, mitochondrial (Homo sapiens, UniProt O94925); assay: Allosteric inhibition of human GLS1 using glutamine as substrate incubated for 60 mins by NADH/NADPH-based absorbance analysis
T1 sequence (O94925 whole entry): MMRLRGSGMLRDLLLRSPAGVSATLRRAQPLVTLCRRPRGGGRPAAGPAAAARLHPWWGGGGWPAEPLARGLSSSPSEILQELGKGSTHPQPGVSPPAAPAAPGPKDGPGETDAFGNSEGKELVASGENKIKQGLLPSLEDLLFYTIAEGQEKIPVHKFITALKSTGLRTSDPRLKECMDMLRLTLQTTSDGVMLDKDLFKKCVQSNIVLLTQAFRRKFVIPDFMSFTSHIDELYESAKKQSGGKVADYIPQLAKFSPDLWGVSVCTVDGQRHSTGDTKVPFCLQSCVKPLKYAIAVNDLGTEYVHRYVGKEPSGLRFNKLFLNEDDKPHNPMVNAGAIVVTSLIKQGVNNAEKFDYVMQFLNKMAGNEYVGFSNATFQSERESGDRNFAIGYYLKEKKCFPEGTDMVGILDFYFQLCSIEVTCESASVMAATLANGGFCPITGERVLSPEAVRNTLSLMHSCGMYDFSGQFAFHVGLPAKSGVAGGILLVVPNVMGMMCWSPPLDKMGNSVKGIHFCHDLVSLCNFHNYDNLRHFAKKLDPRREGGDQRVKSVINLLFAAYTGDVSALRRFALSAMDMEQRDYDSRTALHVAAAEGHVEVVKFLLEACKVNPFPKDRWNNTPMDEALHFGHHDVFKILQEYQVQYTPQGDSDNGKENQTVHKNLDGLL

[2] = Metabolic stability in human liver microsomes assessed as half life at 10 uM by LC-MS/MS analysis; type: ADME, Microsome; conditions: liver microsomes
[3] = Metabolic stability in human plasma assessed as parent compound remaining at 1 uM measured after 2 hrs by LC-MS/MS analysis; type: ADME, cell-free; conditions: read-out: Stability
[4] = test system: HCT-116; assay: Antiproliferative activity against human HCT-116 cells overexpressing GLS1 assessed as inhibition of cell proliferation measured after 72 hrs by MTT assay; type: functional, cell-based; conditions: HCT-116, 72 h
[5] = test system: MDA-MB-436; assay: Antiproliferative activity against human MDA-MB-436 cells overexpressing GLS1 assessed as inhibition of cell proliferation measured after 72 hrs by MTT assay; type: functional, cell-based; conditions: MDA-MB-436, 72 h
[6] = Cmax in Sprague-Dawley rat at 10 mg/kg, ip measured for 72 hrs by LC-MS/MS analysis; type: ADME, organism-based; set-up: dose 10 mg/kg, time 72 hrs, route ip; conditions: in vivo
[7] = target: T1, Glutaminase kidney isoform, mitochondrial; assay: Binding affinity to human GLS1 assessed as dissociation constant by surface plasmon resonance analysis
[8] = test system: CT26; assay: Antiproliferative activity against mouse CT26 cells overexpressing GLS1 assessed as inhibition of cell proliferation measured after 72 hrs by MTT assay; type: functional, cell-based; conditions: CT26, 72 h
[9] = test system: HCT-116; assay: Induction of apoptosis in human HCT-116 cells assessed as early apoptotic cells at 30 nM measured after 24 hrs by Annexin V-FITC/PI staining based flow cytometry method (reference value: 4.65 %); type: functional
[10] = test system: HCT-116; assay: Induction of apoptosis in human HCT-116 cells assessed as late apoptotic cells at 30 nM measured after 24 hrs by Annexin V-FITC/PI staining based flow cytometry method (reference value: 3.55 %); type: functional
[11] = test system: HCT-116; assay: Induction of apoptosis in human HCT-116 cells assessed as early apoptotic cells at 50 nM measured after 24 hrs by Annexin V-FITC/PI staining based flow cytometry method (reference value: 4.65 %); type: functional
[12] = test system: HCT-116; assay: Induction of apoptosis in human HCT-116 cells assessed as late apoptotic cells at 50 nM measured after 24 hrs by Annexin V-FITC/PI staining based flow cytometry method (reference value: 3.55 %); type: functional
[13] = test system: HCT-116; assay: Induction of apoptosis in human HCT-116 cells assessed as late apoptotic cells at 200 nM measured after 24 hrs by Annexin V-FITC/PI staining based flow cytometry method (reference value: 3.55 %); type: functional
[14] = AUC (0 to t) in Sprague-Dawley rat at 5 mg/kg, iv measured for 72 hrs by LC-MS/MS analysis; type: ADME, organism-based; set-up: dose 5 mg/kg, time 72 hrs, route iv; conditions: in vivo
[15] = AUC (0 to t) in Sprague-Dawley rat at 10 mg/kg, ip measured for 72 hrs by LC-MS/MS analysis; type: ADME, organism-based; set-up: time 72 hrs, dose 10 mg/kg, route ip; conditions: in vivo
[16] = AUC (0 to infinity) in Sprague-Dawley rat at 5 mg/kg, iv measured for 72 hrs by LC-MS/MS analysis; type: ADME, organism-based; set-up: time 72 hrs, dose 5 mg/kg, route iv; conditions: in vivo
[17] = Half life in Sprague-Dawley rat at 5 mg/kg, iv measured for 72 hrs by LC-MS/MS analysis; type: ADME, organism-based; conditions: in vivo
[18] = Bioavailability in Sprague-Dawley rat at 10 mg/kg, ip measured for 72 hrs by LC-MS/MS analysis; type: ADME, organism-based; conditions: in vivo
[19] = test system: HCT-116; assay: Antitumor activity against human HCT-116 cells xenografted in BALB/c SPF mouse assessed as tumor growth inhibition at 50 mg/kg, ip administered BID for 21 days; type: functional; conditions: HCT-116, 504 h, time 21 day, read-out: TGI
[20] = test system: HCT-116; assay: Antitumor activity against human HCT-116 cells xenografted in BALB/c SPF mouse assessed as tumor growth inhibition at 100 mg/kg, ip administered BID for 21 days; type: functional; conditions: Mus musculus, HCT-116, 504 h, time 21 day, read-out: TGI
[21] = Toxicity in BALB/c SPF mouse xenografted with human HCT-116 cells assessed as body weight loss at 50 to 100 mg/kg, ip administered BID for 21 days; type: organism-based; conditions: in vivo, 504 h, dose 50-100 mg/kg, time 21 day
[22] = Toxicity in nude mouse xenografted with human HCT-116 cells assessed as heart damage by measuring edema and atrophy at 50 to 100 mg/kg, ip measured after 21 days by H and E staining based analysis; type: organism-based; conditions: in vivo, 504 h, dose 50-100 mg/kg, time 21 day
[23] = Toxicity in nude mouse xenografted with human HCT-116 cells assessed as liver damage by measuring edema and atrophy at 50 to 100 mg/kg, ip measured after 21 days by H and E staining based analysis; type: organism-based; conditions: in vivo, 504 h, dose 50-100 mg/kg, time 21 day
[24] = Toxicity in nude mouse xenografted with human HCT-116 cells assessed as lung damage by measuring edema and atrophy at 50 to 100 mg/kg, ip measured after 21 days by H and E staining based analysis; type: organism-based; conditions: in vivo, 504 h, dose 50-100 mg/kg, time 21 day
[25] = target: T2, Glutaminase kidney isoform, mitochondrial (Homo sapiens) (UniProt O94925); conditions: HCT-116, filed as negative allosteric modulator, dose 100-300 nM, time 12.0 hrs
T2 sequence (whole entry): T1 sequence (O94925 whole entry)

[26] = target: T2, Glutaminase kidney isoform, mitochondrial (Homo sapiens); conditions: HCT-116, filed as negative allosteric modulator, dose 100-300 nM, time 12.0 hrs; remark: listed apart in the source
[27] = target: T2, Glutaminase kidney isoform, mitochondrial (Homo sapiens); conditions: HCT-116, filed as negative allosteric modulator, dose 100-300 nM, time 12.0 hrs; remark: listed apart in the source
[28] = target: T2, Glutaminase kidney isoform, mitochondrial (Homo sapiens); conditions: HCT-116, filed as negative allosteric modulator, dose 100-300 nM, time 12.0 hrs; remark: listed apart in the source
[29] = target: T2, Glutaminase kidney isoform, mitochondrial (Homo sapiens); conditions: HCT-116, filed as negative allosteric modulator, dose 100-300 nM, time 12.0 hrs; remark: listed apart in the source

IC50 [1]: 11.9 nM | half-life at 10 µM [2]: 3.24 h | remaining at 2 h, 1 µM [3]: 96% | IC50 [4]: 51 nM | IC50 [5]: 370 nM | Cmax [6]: 262 ng/mL | Kd [7]: 52 nM | IC50 [8]: 320 nM | AUC(0-t) at 72 h [14]: 6930 ng·h/mL | AUC(0-t) at 72 h [15]: 2900 ng·h/mL | AUC(0-inf) [16]: 7310 ng·h/mL | half-life [17]: 7.44 h | bioavailability [18]: 20.9% | inhibition [25]: Active | inhibition [26]: Active | inhibition [27]: Active | inhibition [28]: Active | inhibition [29]: Active
SMILES: O=C(Cc1ccccc1)Nc1nnc(NC2CCN(c3nnc(NC(=O)c4nccn4Cc4ccc(C(F)(F)F)cc4)s3)CC2)s1
Activity [9]: 13.6% | Activity [10]: 4.99% | Activity [11]: 23.4% | Activity [12]: 5.4% | Activity [13]: 13.2% | inhibition in vivo at 50 mg/kg [19]: 35.5% | inhibition in vivo at 100 mg/kg [20]: 47.5% | Activity [21]: Non-Toxic | Activity [22]: Non-Toxic | Activity [23]: Non-Toxic | Activity [24]: Non-Toxic

Source: ChEMBL document CHEMBL5154870, “Discovery of novel glutaminase 1 allosteric inhibitor with 4-piperidinamine linker and aromatic heterocycles” (Eur J Med Chem, 2022)
